Patent US8901038B2, “Biphenyl-substituted cyclic ketoenols” (Bayer CropScience AG, priority 2010, dated 2014)

Experiments:
[1] = system: larvae of the mustard beetle (Phaedon cochleariae); assay: Phaedon test (PHAECO spray treatment); assay type: in vivo; details: application rate 500 g/ha; Chinese cabbage leaf discs sprayed; after 7 days
Method: Phaedon Test (PHAECO Spray Treatment)
(§1) • Solvents: 78.0 parts by weight of acetone • 1.5 parts by weight of dimethylformamide • Emulsifier: 0.5 part by weight of alkylaryl polyglycol ether
To produce a suitable preparation of active compound, one part by weight of active compound is mixed with the stated amounts of solvents and emulsifier, and the concentrate is diluted with emulsifier-containing water to the desired concentration. […].
After 7 days, the effect in % is determined. 100% means that all beetle larvae have been killed; 0% means that none of the beetle larvae have been killed.

[2] = system: green peach aphid (Myzus persicae); assay: Myzus test (MYZUPE spray treatment); assay type: in vivo; details: application rate 500 g/ha; Chinese cabbage leaf discs sprayed; after 6 days
Method: Myzus Test (MYZUPE Spray Treatment)
• Solvents: 78 parts by weight of acetone • 1.5 parts by weight of dimethylformamide • Emulsifier: 0.5 part by weight of alkylaryl polyglycol ether
To produce a suitable preparation of active compound, 1 part by weight of active compound is mixed with the stated amounts of solvent and emulsifier, and the concentrate is diluted with emulsifier-containing water to the desired concentration. Discs of Chinese cabbage (Brassica pekinensis) which are infested by all stages of the green peach aphid (Myzus persicae) are sprayed with an active compound preparation of the desired concentration. After 6 days, the effect in % is determined. 100% means that all aphids have been killed; 0% means that none of the aphids have been killed.

[3] = Description: Use is made of leaves which, fully developed, are cut from apple trees of the cultivar Golden Delicious.
Only the cuticles, free from hairs and stoma, of the upper sides of the leaves are then used. They are washed repeatedly alternating with water and a buffer solution of pH 7. The clean cuticles obtained are then mounted on Teflon plates and smoothed and dried with a gentle stream of air.
In the next step, the cuticle membranes obtained in this manner are placed into stainless steel diffusion cells (=transport chambers) for membrane transport studies. To this end, the cuticles are placed with a pincette into the centre of the edges, coated with silicone fat, of the diffusion cells and closed with a ring, which is also treated with fat. The arrangement is chosen such that the morphological outside of the cuticles is facing outwards, i.e. exposed to air, whereas the original inside is facing the interior of the diffusion cell.
The diffusion cells are filled with a 30% strength ethylene glycol/water solution. To determine the penetration, in each case 10 μl of the spray liquor of the composition below are applied to the outside of the cuticles. The spray liquor is prepared using local tap water of medium hardness.
After the application of the spray liquors, the water is allowed to evaporate and the chambers are inverted and placed into thermostatic tubs in which temperature and atmospheric humidity over the cuticles can be adjusted using a gentle stream of air onto the cuticles with the spray coating (35° C., 60% rh).

[4] = system: greenhouse red spider mite (Tetranychus urticae); assay: Tetranychus test; OP-resistant (TETRUR spray treatment); assay type: in vivo; details: application rate 100 g/ha; bean leaf discs sprayed; after 6 days
Method: Tetranychus Test; OP-Resistant (TETRUR Spray Treatment)
as §1
To produce a suitable preparation of active compound, 1 part by weight of active compound is mixed with the stated amounts of solvent and emulsifier, and the concentrate is diluted with emulsifier-containing water to the desired concentration. Discs of bean leaves (Phaseolus vulgaris), which are infested by all stages of the greenhouse red spider mite (Tetranychus urticae) are sprayed with an active compound preparation of the desired concentration.
After 6 days, the effect in % is determined. 100% means that all spider mites have been killed; 0% means that none of the spider mites have been killed.

[5] = system: caterpillars of the armyworm (Spodoptera frugiperda); assay: Spodoptera frugiperda test (SPODFR spray treatment); assay type: in vivo; details: application rate 500 g/ha; maize leaf discs sprayed; after 7 days
Method: Spodoptera frugiperda Test (SPODFR Spray Treatment)
as §1
To produce a suitable preparation of active compound, 1 part by weight of active compound is mixed with the stated amounts of solvent and emulsifier, and the concentrate is diluted with emulsified water to the desired concentration. Discs of maize leaves (Zea mays) are sprayed with an active compound preparation of the desired concentration and, after drying, populated with caterpillars of the armyworm (Spodoptera frugiperda).
After 7 days, the effect in % is determined. 100% means that all caterpillars have been killed; 0% means that none of the caterpillars have been killed.

Lucilia cuprina larvae = assay: Lucilia cuprina test (LUCICU); assay type: in vivo; details: application rate 100 ppm; treated horse meat; after 2 days
Method: Lucilia cuprina test (LUCICU)
(§2) • Solvent: Dimethyl sulphoxide
To produce a suitable preparation of active compound, 10 mg of active compound are mixed with 0.5 ml of dimethyl sulphoxide and the concentrate is diluted with water to the desired concentration. Containers containing horse meat treated with the active compound preparation of the desired concentration are populated with about 20 Lucilia cuprina larvae.
After 2 days, the kill in % is determined. 100% means that all larvae have been killed; 0% means that none of the larvae have been killed.

Boophilus microplus = Boophilus microplus test (BOOPMI injection); assay type: in vivo; details: application rate 20 μg/animal; injection into the abdomen; after 7 days
Method: Boophilus microplus Test (BOOPMI Injection)
as §2
To produce a suitable preparation of active compound, 10 mg of active compound are mixed with 0.5 ml of solvent and the concentrate is diluted with solvent to the desired concentration. The solution of active compound is injected into the abdomen (Boophilus microplus) and the animals are transferred into dishes and stored in a climatized room. The efficacy is monitored for deposition of fertile eggs.
After 7 days, the effect in % is determined. 100% means that none of the ticks has laid any fertile eggs.

Meloidogyne incognita = Meloidogyne incognita test (MELGIN); assay type: in vivo; details: application rate 20 ppm; lettuce roots; after 14 days
Method: Meloidogyne incognita Test (MELGIN)
as §1
To produce a suitable preparation of active compound, 1 part by weight of active compound is mixed with the stated amounts of solvents and emulsifier, and the concentrate is diluted with water to the desired concentration. Containers are filled with sand, solution of active compound, Meloidogyne incognita egg/larvae suspension and lettuce seeds. The lettuce seeds germinate and the plants develop. On the roots, galls are formed. After 14 days, the nematicidal activity is determined in % by the formation of galls. 100% means that no galls are found; 0% means that the number of galls on the treated plants corresponds to that of the untreated controls.

| SMILES | efficacy (beetle larvae killed) [1] [%] | efficacy (aphids killed) [2] [%] | Penetration after 48 h/% EC + AS (0.7 g/l) [3] [%] | Penetration after 48 h/% EC + RME (1 g/l) [3] [%] | Penetration after 48 h/% EC + RME (1 g/l) + AS (0.7 g/l) [3] [%] | efficacy (spider mites killed) [4] [%] | efficacy (caterpillars killed) [5] [%] | efficacy (kill of larvae) (Lucilia cuprina larvae) [%] | efficacy (deposition of fertile eggs) (Boophilus microplus) [%] | efficacy (nematicidal activity by formation of galls) (Meloidogyne incognita) [%] |
| --- | --- | --- | --- | --- | --- | --- | --- | --- | --- | --- |
| CCON1CCC2(CC1)NC(=O)C(c1c(CC)ccc(-c3ccc(Cl)cc3)c1CC)=C2O [Example I-1-a-25] | 100 | 100 | 2 | 4 | 10 | 100 | – | – | – | – |
| COC1CCC2(CC1)NC(=O)C(c1c(Cl)ccc(-c3ccc(F)cc3)c1C)=C2O (stereo not drawn) [Example I-1-a-14] | 100 | 100 | – | – | – | 90 | 100 | 100 | 95 | – |
| Cc1ccc(-c2ccc(Cl)cc2)c(Cl)c1C1=C(O)C2(CCOCC2)NC1=O [Example I-1-a-11] | – | 100 | – | – | – | 100 | 83 | 100 | 90 | > 80 |
| Cc1ccc(-c2ccc(F)cc2)c(Cl)c1C1=C(O)C2(CCOCC2)NC1=O [Example I-1-a-12] | 100 | 100 | – | – | – | 100 | 100 | 100 | 95 | – |
